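Each compound was tested at five concentrations against cells in 96-well plates for 48 hours. The concentration for full growth arrest is given as TGI.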 *1 amine or outer side, *2 acyl side, *3 side chain or, on linkers, in order; H or OH if unused. Where a SMILES comes first, the peptide text is derived from it. [ ]: non-standard residue; d: D form. The star is where a group is joined. ξ: configuration not given here. NMeY = CN[C@@H](Cc1ccc(O)cc1)C(=O)O; Ethylenediamine = C(CN[*:2])N[*:1]; ξNMeL = CNC(CC(C)C)C(=O)O; Cbz = O=C(OCc1ccccc1)*; Lac = C[C@H](O)C(=O)O; ξA = CC(N)C(=O)O
Key:
Test in all cases: NCI anticancer screen, dose series, 48 h
[1] = test system: ACHN renal
[2] = test system: 786-0 renal
[3] = test system: HL-60(TB) leukemia

CN(C)C1(N(C)C)Oc2c(c(=O)n(C)c(=O)n2C)C(c2ccc(C(F)(F)F)cc2)C1(F)F (stereo not drawn)
TGI [1]: > 100 µM
TGI [2]: > 100 µM

CC(=O)Nc1ccc2c3c(cc(O)c2c1)N(C(=O)CCCCC(=O)N1CC(CCl)c2c1cc(O)c1cc(NC(C)=O)ccc21)CC3CCl (stereo not drawn)
TGI [3]: 4.39 µM
TGI [1]: 1.49 µM
TGI [2]: 0.992 µM

NC(=O)CN1CC(C2=C(O)CN(CC(N)=O)C2=O)=CC1=O
TGI [3]: > 100 µM
TGI [1]: > 100 µM
TGI [2]: > 100 µM

c1ccc2c(c1)nc1n2CSCC1
TGI [3]: > 100 µM
TGI [1]: > 100 µM
TGI [2]: > 100 µM

CC(=O)OC1OC(c2ccoc2)C[C@@]12C1CCC3O[C@]3(C)[C@]1(C)[C@H](OC(C)=O)[C@H](OC(C)=O)[C@H]2C (stereo partly drawn)
TGI [3]: > 37.5 µM
TGI [1]: > 37.5 µM
TGI [2]: > 37.5 µM

C=C1C(=O)O[C@H]2C1C[C@@H](O)/C(C)=C/CC[C@@]1(C)O[C@H]21 (stereo partly drawn)
TGI [3]: 9.27 µM
TGI [1]: 37.7 µM
TGI [2]: > 48.2 µM

COc1cc2cc(C(=O)N3CC(CCl)c4ccc([N+](C)(C)Cc5ccc([N+](=O)[O-])cc5)cc43)[nH]c2c(OC)c1OC (stereo not drawn)
TGI [3]: 5.55 µM
TGI [1]: 7.12 µM
TGI [2]: 6.54 µM

c1cc(-c2ccc(-c3nc4ccc(C5=NCCN5)cc4s3)s2)ccc1C1=NCCN1
TGI [3]: 2.08 µM
TGI [1]: 1.28 µM
TGI [2]: 0.272 µM

Cc1cccc(NC(=O)O/N=C(\Cl)C(C)C)c1
TGI [3]: 4.27 µM
TGI [1]: 3.94 µM
TGI [2]: 4.12 µM

C=C(Cl)/C(=C\Cl)CCC(Cl)C(C)C (stereo not drawn)
TGI [3]: > 100 µM
TGI [1]: > 100 µM
TGI [2]: > 100 µM

CNCCCNC(=S)Cn1cc(C)c(=O)[nH]c1=O
TGI [3]: > 54 µM
TGI [1]: > 74.3 µM
TGI [2]: > 100 µM

Cn1c2c(c3ccccc31)CCN=C2C1CCCOC1=O (stereo not drawn)
TGI [3]: > 100 µM
TGI [1]: > 100 µM
TGI [2]: > 100 µM

Cc1cc(S(=O)(=O)Nc2nnc3c4ccccc4cnn23)c(S)cc1Cl
TGI [3]: > 100 µM
TGI [1]: > 100 µM
TGI [2]: > 100 µM

COc1ccc(C2C(C#N)=C(S)N(C3OC(COC(C)=O)C(OC(C)=O)C(OC(C)=O)C3OC(C)=O)C(C)=C2C(C)=O)cc1 (stereo not drawn)
TGI [3]: > 100 µM
TGI [1]: > 100 µM
TGI [2]: > 100 µM

CCC(=O)NI1OC(=O)c2ccccc21
TGI [3]: > 100 µM
TGI [1]: > 100 µM
TGI [2]: > 100 µM

c1ccc2c(c1)nn1c3ccc4nonc4c3[n-][n+]21
TGI [3]: > 100 µM
TGI [1]: > 100 µM
TGI [2]: > 100 µM

CN(CCNC(=O)c1c[nH]c2c1ccc1ccccc12)CCNC(=O)c1c[nH]c2c1ccc1ccccc12
TGI [3]: 4.29 µM
TGI [1]: 4.72 µM
TGI [2]: 2.87 µM

CC1=NN(c2nc(N)nc(CSc3cc(Cl)c(C)cc3S(N)(=O)=O)n2)C(C)(C)C1
TGI [3]: > 10 µM
TGI [1]: > 10 µM
TGI [2]: > 10 µM

O=C1C[C@H](COCc2ccccc2)NC(=O)C[C@H](COCc2ccccc2)NC(=O)C[C@H](COCc2ccccc2)N1
TGI [3]: > 100 µM
TGI [1]: > 100 µM
TGI [2]: > 100 µM

O=C(O)Cc1ccc(Nc2nc3ccccc3nc2C(=O)O)cc1
TGI [3]: > 100 µM
TGI [1]: > 100 µM
TGI [2]: > 100 µM

Cc1ccc(/C=C/C(=N/NC(=O)N/N=C(/C=C/c2ccc(C)cc2)C(C)C)C(C)C)cc1
TGI [3]: > 10 µM
TGI [1]: > 10 µM
TGI [2]: > 10 µM

O/N=C(/C(Cl)=C(Cl)Cl)C(Cl)Cl
TGI [3]: 26.3 µM
TGI [1]: 32 µM
TGI [2]: 34 µM

Cc1c(O)c(OC2OC(CO)C(O)C(O)C2O)cc2c1C=C[C@@H]1[C@@]2(C)C(=O)C[C@]2(C)[C@@H]([C@@](C)(O)C(O)/C=C/C(C)(C)O)[C@H](O)C[C@@]12C (stereo partly drawn)
TGI [3]: > 100 µM
TGI [1]: > 100 µM
TGI [2]: > 100 µM

COc1ccc(/C=C2\C[C@H]3[C@@H]4CC=C5C[C@@H](OC(C)=O)CC[C@]5(C)[C@H]4CC[C@]3(C)\C2=N\O)cc1OC
TGI [3]: > 100 µM
TGI [1]: > 100 µM
TGI [2]: > 100 µM

COc1ccc(C[C@@H](C(=O)NCCNC(=O)C(CC(C)C)N(C)C(=O)[C@@H]2CCCN2C(=O)[C@H](C)O)N(C)C(=O)[C@@H]2CCCN2C(=O)[C@H](CC(C)C)NC(=O)C(C)NC(=O)OCc2ccccc2)cc1 (stereo partly drawn) (Cbz-[ξA]LP[NMeY](Me)-{Ethylenediamine-ξNMeL-Pro-Lac})
TGI [3]: > 100 µM
TGI [1]: > 100 µM
TGI [2]: > 100 µM

O=C1c2c(Br)sc(Br)c2[C@@H](Cl)[C@H]1Cl
TGI [3]: 20.5 µM
TGI [1]: 37.4 µM
TGI [2]: 52.5 µM

O=c1[nH]nc(-c2ccccc2)n1/N=C/c1ccco1
TGI [3]: > 100 µM
TGI [1]: > 100 µM
TGI [2]: > 100 µM

Cc1ccc(S(=O)(=O)NC(=O)Nc2cccc(S(N)(=O)=O)c2)cc1
TGI [3]: > 100 µM
TGI [1]: > 100 µM
TGI [2]: > 100 µM

Cc1c2n(c3ccccc13)S(=O)(=O)c1ccccc1-2
TGI [3]: > 100 µM
TGI [1]: 43 µM
TGI [2]: 22.7 µM

O=C1NC(N2CCCC(CO)C2)=N/C1=C\c1ccccc1 (stereo not drawn)
TGI [3]: > 100 µM
TGI [1]: > 100 µM
TGI [2]: > 100 µM

COc1ccc2c(c1)CC1COc3cc(OC)ccc3C1O2 (stereo not drawn)
TGI [2]: > 100 µM

CCOC(=O)c1nc2ccccc2nc1NCc1ccc(OC)c(OC)c1
TGI [3]: > 100 µM
TGI [1]: > 100 µM
TGI [2]: > 100 µM

COC(=O)c1cc(OS(=O)(=O)C(F)(F)F)c(=O)n2c1CCCC2
TGI [3]: > 100 µM
TGI [1]: > 100 µM
TGI [2]: > 100 µM

O=[N+]([O-])c1ccc(-n2nc3ccc4c(no[n+]4[O-])c3[n+]2[O-])c([N+](=O)[O-])c1
TGI [3]: 5.43 µM
TGI [1]: 5.7 µM
TGI [2]: 7.97 µM

CC(=O)N1c2ccccc2C2=NN(C)C(=N)SC21 (stereo not drawn)
TGI [3]: > 100 µM
TGI [1]: > 100 µM
TGI [2]: > 100 µM

CC(C)(C)c1cc2c(c(C(C)(C)C)c1O)CC(=O)O2
TGI [3]: 86.8 µM
TGI [1]: 55.5 µM
TGI [2]: 94.1 µM

Cc1c[nH]c(C(=O)O)c1-c1cccn1-c1ccc(Cl)cc1[N+](=O)[O-]
TGI [1]: > 100 µM
TGI [2]: > 100 µM

Cc1ccc(/C=C2/N=C(N/N=C\C(O)C(O)C(O)CO)NC2=O)cc1 (stereo not drawn)
TGI [3]: > 100 µM
TGI [1]: > 100 µM
TGI [2]: > 100 µM

O=C(/C=C/c1ccc(OCc2ccccc2)cc1)NCc1ccc(C(=O)NCCc2c[nH]c3ccccc23)cc1
TGI [3]: > 100 µM
TGI [1]: > 100 µM
TGI [2]: 16.7 µM
